pIC50: −log10 of the molar value.
system: Jurkat FADD (−/−) Cells; experiment: TNF-α induced necroptosis of Jurkat FADD-deficient cells (CellTiter-Glo cell survival); assay type: cell-based, human; conditions: Homo sapiens, Jurkat, 13 h
Method: 1. Cell Activity Testing System (TNF-α Induces the Necroptosis of Jurkat Cells, the Human Leukemia Cells Deficient in FADD).
(1) Cell culture: Jurkat FADD-deficient cells were cultured in an RPMI 1640 medium with 10% fetal bovine serum (FBS), 100 U/mL penicillin, and 100 […]. The cells were cultured in a cell culture incubator at 37° C. with 5% CO2. And all the cells were cryopreserved in a complete medium containing 5-10% DMSO. Medium change and passage were performed 3-4 times per week.
(4) Experimental scheme: The system of TNF-α inducing the necroptosis of Jurkat FADD-deficient cells was used to screen for compounds with RIPKl kinase inhibitory activity.
Jurkat FADD-deficient cells were evenly inoculated into a 384-well plate with each well added with a 40 μL complete culture medium, followed by the addition of 5 μL of the under-testing compound to each well. The initial concentration of the compounds was set at 25 μM (for some compounds with higher activity, the initial concentration was set at 0.5 μM), with a three-fold gradient dilution, totaling 12 gradient points. Three replicate wells were set for each compound. In addition, there was a blank control group and a control group with TNFα stimulation only. After the compound was added, the mixture needed to be centrifuged and incubated in a cell culture incubator at 37° C. containing 5% CO2 for 1 hour. After that, 5 μL of 5 ng/mL TNFα was added to stimulate the occurrence of necroptosis. After centrifugation and mixing, the mixture was placed in the cell culture incubator for 13 hours (until the cell death rate reaches 65% in the group with only TNF-α), with a total volume of 50 μL per well. Then, the steps below were followed to test the cell survival rate.
The CellTiter-Glo® Buffer was removed from the reagent kit, equilibrated to room temperature, and used to dissolve the CellTiter-Glo® Substrate. The CellTiter-Glo® Reagent obtained could be directly used for the experiment.
15 μL of CellTiter-Glo® Reagent which has been equilibrated to room temperature was added to each well, and incubated in the dark for 15 minutes. After that, a microplate reader (Enspire Multimode Plate Reader of PerkinElmer, USA) was used to measure the chemiluminescence.

`COC(=O)C(=O)c1cn2c3c(cccc13)N(C)C(=O)[C@@H](NC(=O)c1nnc(Cc3ccccc3)[nH]1)C2` [T-92, Methyl(S)-2-(3-(5-benzyl-4H-1,2,4-triazole-3-carboxamide)-1-methyl-2-oxo-1,2,3,4-tetrahydro-[1,4]diazepine [3,2,1-hi]indol-7-yl)-2-oxoacetic Acid] and `CN1C(=O)[C@@H](NC(=O)c2nnc(Cc3ccccc3)[nH]2)Cn2cc(C(=O)O)c3cccc1c32` [T-94, (S)-3-(5-benzyl-4H-1,2,4-triazole-3-carboxamide)-1-methyl-2-oxo-1,2,3,4-tetrahydro-[1,4] diazabicyclo[3,2,1-hi] indole-7-carboxylic Acid] cannot be ordered by pIC50: < 6.00 for the first, < 6.00 for the second.

`CN1C(=O)[C@@H](NC(=O)c2nnc(Cc3ccccc3)[nH]2)Cn2cc(C(=O)C(F)(F)F)c3cccc1c32` [T-93, (S)-5-benzyl-N-(1-methyl-2-oxo-7-(2,2,2-trifluoroacetyl)-1,2,3,4-tetrahydro-[1,4]diazepine [3,2,1-hi]indol-3-yl)-4H-1,2,4-triazole-3-carboxamide] showed a pIC50 of 6.00 to 7.00.

same assay, conditions: Homo sapiens; TNF-α induced necroptosis, Jurkat FADD-deficient cells, 13 hours, CellTiter-Glo; read-out: IC50

`CN1C(=O)C(NC(=O)c2nnc(Cc3ccccc3)[nH]2)Cc2cn(-c3ncccc3OC(F)F)c3cccc1c23` (racemic) [T-107, (±)-5-benzyl-N-(6-(3-(difluoromethoxy)pyridin-2-yl)-1-methyl-2-oxy-2,3,4,6-tetrahydro-1H-azacyclo [4,3,2-cd]indol-3-yl)-4H-1,2,4-triazole-3-carboxamide] and `Cc1cccnc1-n1cc2c3c(cccc31)N(C)C(=O)C(NC(=O)c1nnc(Cc3ccccc3)[nH]1)C2` (racemic) [T-44, (±)-5-benzyl-N-(1-methyl-6-(3-methylpyridin-2-yl)-2-oxo-2,3,4,6-tetrahydro-1H-azacyclo [4,3,2-cd]indol-3-yl)-4H-1,2,4-triazole-3-carboxamide] cannot be ordered by pIC50: > 8.00 for the first, > 8.00 for the second.

First: CN1C(=O)C(NC(=O)c2cc(Oc3ccccc3)ccn2)Cc2cn(-c3ncccc3C(F)(F)F)c3cccc1c23 (racemic) [T-70, (±)-N-(1-methyl-2-oxo-6-(3-(trifluoromethyl)pyridin-2-yl)-2,3,4,6-tetrahydro-1H-azacyclo[4,3,2-cd]indol-3-yl)-4-phenoxy Pyridinamide]
Second: CC(O)c1cccnc1-n1cc2c3c(cccc31)N(C)C(=O)C(NC(=O)c1nnc(Cc3ccccc3)[nH]1)C2 (racemic) [T-58, (±)-5-benzyl-N-(6-(3-(1-hydroxyethyl)pyridin-2-yl)-1-methyl-2-oxo-2,3,4,6-tetrahydro-1H-azacyclo [4,3,2-cd]indol-3-yl)-4H-1,2,4-triazole-3-carboxamide]
The pIC50 of the first is higher: > 8.00 for the first, 7.00 to 8.00 for the second. The first is the more potent here.

First: CN1C(=O)C(NC(=O)c2nnc(Cc3ccccc3)[nH]2)Cc2cn(-c3cccnn3)c3cccc1c23 (racemic) [T-106, (±)-5-benzyl-N-(1-methyl-2-oxo-6-(pyridazin-3-yl)-2,3,4,6-tetrahydro-1H-aza [4,3,2-cd]indol-3-yl)-4H-1,2,4-triazole-3-carboxamide]
Second: CN1C(=O)C(NC(=O)c2nnc(Cc3ccccc3)[nH]2)Cc2cn(-c3ccn(C)n3)c3cccc1c23 (racemic) [T-37, (±)-5-benzyl-N-(1-methyl-6-(1-methyl-1H-pyrazol-3-yl)-2-oxo-2,3,4,6-tetrahydro-1H-azacyclo [4,3,2-cd]indol-3-yl)-4H-1,2,4-triazole-3-carboxamide]
The pIC50 of the first is lower: 6.00 to 7.00 for the first, > 8.00 for the second. The second is the more potent here.

`CN1C(=O)C(NC(=O)c2nnc(Cc3ccccc3)[nH]2)Cn2cc(-c3ccccc3C(F)(F)F)c3cccc1c32` (racemic) [T-84, (±)-5-benzyl-N-(1-methyl-2-oxo-7-(2-(trifluoromethyl)phenyl)-1,2,3,4-tetrahydro-[1,4]diazepino [3,2,1-hi]indol-3-yl)-4H-1,2,4-triazole-3-carboxamide] and `Cc1ccsc1-c1cn2c3c(cccc13)N(C)C(=O)C(NC(=O)c1nnc(Cc3ccccc3)[nH]1)C2` (racemic) [T-91, (±)-5-benzyl-N-(1-methyl-7-(3-methylthiophen-2-yl)-2-oxo-1,2,3,4-tetrahydro-[1,4]diazepine [3,2,1-hi]indol-3-yl)-4H-1,2,4-triazole-3-carboxamide] fall in the same range of pIC50: 7.00 to 8.00 for the first, 7.00 to 8.00 for the second.

First: CN1C(=O)C(NC(=O)c2nnc(Cc3ccccc3)[nH]2)Cn2c(C(=O)O)cc3cccc1c32 (racemic) [T-13, (±)-3-(5-benzyl-4H-1,2,4-triazole-3-carboxamido)-1-methyl-2-oxy-1,2,3,4-tetrahydro-[1,4] diazepino [3,2,1-hi] indole-6-carboxylic Acid]
Second: CN1C(=O)C(NC(=O)c2nnc(Cc3ccccc3)[nH]2)Cn2cc(I)c3cccc1c32 (racemic) [T-3, (±)-5-benzyl-N-(7-iodo-1-methyl-2-oxo-1,2,3,4-tetrahydro-[1,4]diazepino [3,2,1-hi]indol-3-yl)-4H-1,2,4-triazole-3-carboxamide]
The pIC50 of the first is lower: < 6.00 for the first, 7.00 to 8.00 for the second.

First: CN1C(=O)C(NC(=O)c2nnc(Cc3ccccc3)[nH]2)Cc2cn(CC(N)=O)c3cccc1c23 (racemic) [T-31, (±)-N-(6-(2-amino-2-oxoethyl)-1-methyl-2-oxo-2,3,4,6-tetrahydro-1H-azacyclo [4,3,2-cd]indol-3-yl)-5-benzyl-4H-1,2,4-triazole-3-carboxamide]
Second: CN1C(=O)C(NC(=O)c2nnc(Cc3ccccc3)[nH]2)Cc2cn(Cc3cnn(C)c3)c3cccc1c23 (racemic) [T-35, (±)-5-benzyl-N-(1-methyl-6-((1-methyl-1H-pyrazol-4-yl)methyl)-2-oxo-2,3,4,6-tetrahydro-1H-azacyclo [4,3,2-cd]indol-3-yl)-4H-1,2,4-triazole-3-carboxamide]
The pIC50 of the first is lower: 6.00 to 7.00 for the first, > 8.00 for the second.

Compared with `CN1C(=O)[C@@H](NC(=O)c2nnc(Cc3ccccc3)[nH]2)Cc2c[nH]c3nccc1c23` [T-71, (S)-5-benzyl-N-(6-methyl-7-oxo-6,7,8,9-tetrahydro-2H-2,3,6-triazabenzene[cd]azulene-8-yl)-4H-1,2,4-triazole-3-carboxamide], `CN1C(=O)C(NC(=O)c2nnc(Cc3ccccc3)[nH]2)Cc2cn(-c3cncn3C)c3cccc1c23` (racemic) [T-74, (±)-5-benzyl-N-(1-methyl-6-(1-methyl-1H-imidazol-5-yl)-2-oxo-2,3,4,6-tetrahydro-1H-azacyclo [4,3,2-cd]indol-3-yl)-4H-1,2,4-triazole-3-carboxamide] is higher in pIC50: 7.00 to 8.00 for the first, > 8.00 for the second. The second is the more potent here.

Compared with `CN(C)C(=O)c1cccnc1-n1cc2c3c(cccc31)N(C)C(=O)C(NC(=O)c1nnc(Cc3ccccc3)[nH]1)C2` (racemic) [T-57, (±)-2-(3-(5-benzyl-4H-1,2,4-triazole-3-carboxamide)-1-methyl-2-oxy-1,2,3,4-tetrahydro-6H-azacyclo [4,3,2-cd]indol-6-yl)-N,N-dimethylnicotinamide], `CNC(=O)c1cccnc1-n1cc2c3c(cccc31)N(C)C(=O)C(NC(=O)c1nnc(Cc3ccccc3)[nH]1)C2` (racemic) [T-56, (±)-2-(3-(5-benzyl-4H-1,2,4-triazole-3-carboxamide)-1-methyl-2-oxy-1,2,3,4-tetrahydro-6H-azacyclo [4,3,2-cd]indol-6-yl)-N-methylnicotinamide] is higher in pIC50: 6.00 to 7.00 for the first, 7.00 to 8.00 for the second. The second is the more potent here.

With `CN1C(=O)C(NC(=O)c2nnc(Cc3ccccc3)[nH]2)Cn2cc(C#Cc3cnn(C)c3)c3cccc1c32` (racemic) [T-8, (±)-5-benzyl-N-(1-methyl-7-((1-methyl-1H-pyrazol-4-yl)ethynyl)-2-oxy-1,2,3,4-tetrahydro-[1,4]diazepino [3,2,1-hi]indol-3-yl)-4H-1,2,4-triazole-3-carboxamide] the pIC50 was > 8.00.

— US20250049812A1, “Compounds that Inhibit Necroptosis and Their Preparation Methods” (SHANGHAI INSTITUTE OF ORGANIC CHEMISTRY, CHINESE ACADEMY OF …, priority 2021, published 2025)
